Test results from ChEMBL document CHEMBL1201862, “PubChem BioAssay data set” (2004).
The source made the active and inactive calls.

How the values were obtained:
[1] = NIH3T3 cell viability loss – ATP luminescence, mouse fibroblasts, counter-screen, dose response (AID 2010); type: functional, cell-based;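 further: cells exposed to compound for about 90 hours before reading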
[2] = Trypanosoma cruzi growth suppression in host cells – NIH3T3 host cells, beta-gal luminescence, confirmation (AID 2044); type: functional, cell-based;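 further: intracellular parasites grown in NIH/3T3 mouse fibroblasts as host cells; luminescent beta-galactosidase reporter signal from transgenic T. cruzi replicating inside host cells; inhibitors lower the luminescence signal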
[3] = target: T1, Short transient receptor potential channel 4 (Mus musculus, UniProt Q9QUQ5); experiment: calcium entry via TRPC4 opening agents – cell-based, HEK293 TRPC4/mu-opioid, Fluo-4 calcium, dose response (AID 434937); type: functional
T1 sequence (Q9QUQ5 whole entry): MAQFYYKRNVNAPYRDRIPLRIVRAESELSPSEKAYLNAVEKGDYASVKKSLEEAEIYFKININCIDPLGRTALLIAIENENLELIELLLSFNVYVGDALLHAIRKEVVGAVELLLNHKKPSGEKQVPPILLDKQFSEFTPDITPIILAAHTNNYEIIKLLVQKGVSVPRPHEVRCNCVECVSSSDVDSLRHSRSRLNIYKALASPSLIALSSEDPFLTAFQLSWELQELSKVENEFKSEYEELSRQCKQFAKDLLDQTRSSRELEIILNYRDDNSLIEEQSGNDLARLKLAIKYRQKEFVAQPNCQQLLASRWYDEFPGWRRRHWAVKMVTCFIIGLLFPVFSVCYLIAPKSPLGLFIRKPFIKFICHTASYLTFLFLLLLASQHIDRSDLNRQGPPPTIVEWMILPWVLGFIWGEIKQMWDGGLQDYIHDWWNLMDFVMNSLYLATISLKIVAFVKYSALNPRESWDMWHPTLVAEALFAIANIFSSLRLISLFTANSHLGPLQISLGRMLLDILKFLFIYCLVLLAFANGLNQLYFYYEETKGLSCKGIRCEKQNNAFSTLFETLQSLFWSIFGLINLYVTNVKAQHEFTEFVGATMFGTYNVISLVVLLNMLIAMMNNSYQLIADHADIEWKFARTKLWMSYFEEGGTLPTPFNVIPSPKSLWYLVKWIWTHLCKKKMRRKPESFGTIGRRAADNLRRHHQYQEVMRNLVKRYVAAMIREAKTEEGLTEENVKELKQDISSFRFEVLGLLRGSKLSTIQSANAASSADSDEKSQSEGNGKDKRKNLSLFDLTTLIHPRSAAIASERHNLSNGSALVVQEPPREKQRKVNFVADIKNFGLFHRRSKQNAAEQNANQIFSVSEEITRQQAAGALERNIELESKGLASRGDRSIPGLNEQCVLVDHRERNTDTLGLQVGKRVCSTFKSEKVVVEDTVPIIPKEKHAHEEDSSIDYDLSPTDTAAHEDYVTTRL

[4] = target: T2, Heat shock protein HSP 90-alpha (Homo sapiens, UniProt P07900); experiment: Luminescence-based dose response biochemical high throughput screening assay for inhibitors of the Heat Shock Protein 90 (HSP90). [Related pubchem assays: 1831 (Summary AID.), 1846 (Confirmation screen.), 1789 (Primary screen.)]
[5] = target: T3, Dual specificity protein phosphatase 6 (Rattus norvegicus, UniProt Q64346); experiment: inhibition of rat DUSP6 enzyme activity – biochemical, in vitro, primary screen (AID 425)
T3 sequence (Q64346 whole entry): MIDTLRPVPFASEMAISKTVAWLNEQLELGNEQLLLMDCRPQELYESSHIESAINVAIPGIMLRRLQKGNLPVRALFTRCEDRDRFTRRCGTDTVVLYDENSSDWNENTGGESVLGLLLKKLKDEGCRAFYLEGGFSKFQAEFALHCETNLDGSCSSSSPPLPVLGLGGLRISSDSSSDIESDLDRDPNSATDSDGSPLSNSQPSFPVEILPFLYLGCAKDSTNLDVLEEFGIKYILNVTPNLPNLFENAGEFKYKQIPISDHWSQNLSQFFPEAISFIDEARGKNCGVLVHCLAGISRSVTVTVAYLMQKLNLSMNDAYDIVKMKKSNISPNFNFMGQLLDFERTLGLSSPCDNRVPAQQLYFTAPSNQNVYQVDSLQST

[6] = target: T4, Small ubiquitin-related modifier 1 (Homo sapiens, UniProt P63165); experiment: SUMO1 protein-protein binding blockers, potency – biochemical, FRET, dose response (AID 624383); type: functional; details: read-out: IC50_Mean
T4 sequence (P63165 whole entry): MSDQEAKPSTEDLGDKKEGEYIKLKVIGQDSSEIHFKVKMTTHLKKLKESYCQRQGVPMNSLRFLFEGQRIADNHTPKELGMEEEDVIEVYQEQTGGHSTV

Bcl-2-related protein A1 = target: T5, Bcl-2-related protein A1 (Mus musculus, UniProt Q07440); experiment: displacement of Bid BH3 peptide from Bfl-1 – biochemical, fluorescence polarization, FITC-Bid, mouse, primary screen (AID 432)
T5 sequence (Q07440 whole entry): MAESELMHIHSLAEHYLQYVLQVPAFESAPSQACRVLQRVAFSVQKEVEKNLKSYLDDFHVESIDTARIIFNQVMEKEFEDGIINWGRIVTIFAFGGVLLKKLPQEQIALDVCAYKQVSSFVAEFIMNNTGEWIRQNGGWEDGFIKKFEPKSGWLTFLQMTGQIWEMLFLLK

[7] = target: T4, Small ubiquitin-related modifier 1; experiment: SUMO1 protein interaction blockers, potency – biochemical, fluorescence polarization, uHTS hits, dose response (AID 624382); type: functional; details: read-out: IC50_Mean
[8] = target: T2, Heat shock protein HSP 90-alpha; type: functional, organism-based
Protein Tat = Protein Tat (Human immunodeficiency virus type 1 group M subtype B (isolate HXB2)(HIV-1), UniProt P04608); type: functional;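 further: tat binding to TAR RNA read out by fluorescence polarization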
Chain of Protein Tat (P04608 whole entry): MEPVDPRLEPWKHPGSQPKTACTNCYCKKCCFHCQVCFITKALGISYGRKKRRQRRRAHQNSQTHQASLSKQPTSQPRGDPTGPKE

[9] = viability loss in THP-1 monocytes – THP-1 cells, cytotoxicity control for Vif-APOBEC3G degradation inhibitor project, dose response (AID 1117359); type: functional; details: THP-1
[10] = Luminescent dose response cell-based high throughput screening assay for inhibitors of the Janus kinase 2 mutant JAK2V617F. [Related pubchem assays: 1446 (Primary screen.), 1521 (Confirmation assay.), 1486 (Counter screen.)]; type: functional
[11] = Luminescence Cell-Based Dose Response to Identify Activators of 5'UTR Stem-Loop Driven Prion Protein mRNA Translation in H4-C Neuroglioblastoma Cells. [Related pubchem assays: 1829 (Project Summary), 1814 (Primary HTS)]; type: functional
[12] = viability of uninfected HEp-2 cells – cell-based, HTS, cytotoxicity control for RSV inhibitor project, dose response (AID 2410); type: functional; details: human respiratory syncytial virus
[13] = Luminescence Cell-Based Dose Response HTS to Identify Activators of Luciferase Translation or Activity in H4 […] Cells. [Related pubchem assays: 1829 (Project Summary), 1814 (Primary HTS)]; type: functional
[14] = Luminescence Cell-Based Dose Response to Identify Activators of Luciferase Translation or Activity in H4-C Neuroglioblastoma Cells. [Related pubchem assays: 1829 (Project Summary), 1814 (Primary HTS)]; type: functional
[15] = Luminescence Cell-Based Dose Confirmation to Identify Activators of 5'UTR Stem-Loop Driven Alpha-Synuclein mRNA Translation in H4 Neuroglioblastoma Cells. [Related pubchem assays: 1829 (Project Summary), 1814 (Primary HTS)]; type: functional
Large T antigen = Large T antigen (Simian virus 40, UniProt P03070); type: functional, Betapolyomavirus macacae;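 further: Confirmatory-stage PubChem screen for compounds that inhibit SV40 T antigen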
Chain of Large T antigen (P03070 whole entry): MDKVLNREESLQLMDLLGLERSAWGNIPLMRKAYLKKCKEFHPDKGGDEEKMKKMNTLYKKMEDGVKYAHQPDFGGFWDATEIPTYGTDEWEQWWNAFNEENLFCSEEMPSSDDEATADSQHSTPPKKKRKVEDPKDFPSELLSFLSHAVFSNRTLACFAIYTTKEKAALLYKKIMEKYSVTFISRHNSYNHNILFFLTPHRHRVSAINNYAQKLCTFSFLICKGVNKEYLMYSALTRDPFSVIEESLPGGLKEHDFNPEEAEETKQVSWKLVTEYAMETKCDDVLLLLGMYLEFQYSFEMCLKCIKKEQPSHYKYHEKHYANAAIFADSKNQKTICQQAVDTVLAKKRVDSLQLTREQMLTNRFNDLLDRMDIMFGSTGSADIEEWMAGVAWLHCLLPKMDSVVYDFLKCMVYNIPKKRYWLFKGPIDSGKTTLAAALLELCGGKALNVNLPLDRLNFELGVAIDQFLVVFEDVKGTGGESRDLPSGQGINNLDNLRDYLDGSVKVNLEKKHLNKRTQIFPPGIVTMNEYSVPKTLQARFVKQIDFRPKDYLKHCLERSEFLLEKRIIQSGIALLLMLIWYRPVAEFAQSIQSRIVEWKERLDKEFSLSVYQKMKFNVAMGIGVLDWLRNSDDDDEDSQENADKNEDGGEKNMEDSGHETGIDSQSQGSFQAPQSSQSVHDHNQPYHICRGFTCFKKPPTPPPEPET

Cc1ccc2oc(=O)c3cnn(CC(=O)NC4CCN(Cc5ccccc5)CC4)c3c2c1
EC50 (cells): 0.079 µM (active)
EC50 [1]: > 60 µM (not active)
EC50 [2]: < 0.1 µM (active)
EC50 [3]: 2.11 µM (active)

COC(=O)c1ccc(COc2ccc3c(C)c(C)c(=O)oc3c2)o1
IC50 [4]: 1.07 µM (active)

Nc1ccc2ncccc2c1N
IC50 [5]: > 10 µM (not active)
IC50 [6]: 3.21 µM (active)
IC50 (Bcl-2-related protein A1): 3.49 µM (active)
IC50 [7]: > 66.6 µM (inactive)

O=C(Nc1nc(-c2ccco2)c(-c2ccco2)s1)c1ccco1
AC50 [8]: 5.17 µM (active)
IC50 (Protein Tat): > 100 µM (active)
CC50 [9]: > 40 µM (active)

CCCn1c(CN(C)Cc2ccccc2)nc2c1c(=O)n(C)c(=O)n2C
IC50 [10]: 4.92 µM (active)

COc1ccc(CCN2C(=O)CC(Nc3ccc(N4CCOCC4)cc3)C2=O)cc1OC (stereo not given)
IC50 (Protein Tat): 18.8 µM (inconclusive)

COC(=O)C1CCN(C(=O)c2ccc3nc(-c4cccc(OC)c4)oc3c2)CC1
IC50 [4]: 1.05 µM (active)

O=C(Nc1nc(-c2ccc3c(c2)OCCO3)cs1)C1CCCC1
EC50 [11]: 0.365 µM (active)
CC50 [12]: 21 µM (active)
EC50 [13]: < 0.1 µM (inconclusive)
EC50 [14]: 0.27 µM (active)
EC50 [15]: 0.247 µM (active)

Cc1ncc(CN2CCCC(CCC(=O)NCc3ccccc3F)C2)s1 (stereo not given)
EC50 (cells): 0.099 µM (active)
EC50 [1]: > 60 µM (not active)
EC50 [2]: < 0.1 µM (active)

Cc1oc2c(O)c(O)ccc2c(=O)c1-c1cnn(-c2ccccc2)c1
IC50 [10]: 2.04 µM (active)
IC50 (Large T antigen): 10.2 µM (active)
